Laboratory results from ChEMBL document CHEMBL1201862, “PubChem BioAssay data set” (2004).
Values joined by “and” are separate entries in the source; they are usually repeats but may differ in a detail not shown here. Equal entries are not always repeated.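 A five-concentration, 48-hour dose response in 96-well plates underlies each endpoint, interpolated linearly between surrounding concentrations. At the GI50, growth is halved.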 Active and inactive are the calls of the source. No stated cut-off is given here; in the data, active = GI50 up to about 1.1 µM and inactive = higher.

Assays:
Assay in all cases: inhibition of tumour cell growth, NCI panel, 48 h
786-0 = system: 786-0
A498 = system: A498
A549 = system: A549
ACHN = system: ACHN
CAKI-1 = system: CAKI-1
CCRF-CEM = system: CCRF-CEM
COLO 205 = system: COLO 205
DLD-1 = system: DLD-1
DMS-114 = system: DMS-114
DMS-273 = system: DMS-273
EKVX = system: EKVX
HCC 2998 = system: HCC 2998
HCT-116 = system: HCT-116
HCT-15 = system: HCT-15
HL-60 = system: HL-60
HOP-62 = system: HOP-62
HT-29 = system: HT-29
IGROV-1 = system: IGROV-1
K562 = system: K562
KM-20L2 = system: KM-20L2
KM12 = system: KM12
LOX IMVI = system: LOX IMVI
LXFL 529 = system: LXFL 529
M14 = system: M14
M19-MEL = system: M19-MEL
MOLT-4 = system: MOLT-4
Malme-3M = system: Malme-3M
NCI-H226 = system: NCI-H226
NCI-H23 = system: NCI-H23
NCI-H460 = system: NCI-H460
NCI-H522 = system: NCI-H522
OVCAR-3 = system: OVCAR-3
OVCAR-4 = system: OVCAR-4
OVCAR-5 = system: OVCAR-5
OVCAR-8 = system: OVCAR-8
RPMI-8226 = system: RPMI-8226
RXF 393 = system: RXF 393
SF-268 = system: SF-268
SF-295 = system: SF-295
SK-MEL-28 = system: SK-MEL-28
SK-MEL-2 = system: SK-MEL-2
SK-MEL-5 = system: SK-MEL-5
SK-OV-3 = system: SK-OV-3
SN12C = system: SN12C
SNB-19 = system: SNB-19
SR = system: SR
SW-620 = system: SW-620
TK-10 = system: TK-10
U-251 = system: U-251
UACC-257 = system: UACC-257
UACC-62 = system: UACC-62
UO-31 = system: UO-31
XF498 = system: XF498
HOP-18 = system: HOP-18
HOP-92 = system: HOP-92
SF-539 = system: SF-539
SNB-75 = system: SNB-75

Measured: GI50

CC(O)C1OC(n2ccc(=O)[nH]c2=O)CC1n1cncn1 (centres undefined)
inactive: 786-0 > 100 µM | A498 > 100 µM | A549 > 100 µM | ACHN > 100 µM | CAKI-1 > 100 µM | CCRF-CEM > 100 µM | COLO 205 > 100 µM | DLD-1 > 100 µM | DMS-114 > 100 µM | DMS-273 > 100 µM | EKVX > 100 µM | HCC 2998 > 100 µM | HCT-116 > 100 µM | HL-60 > 100 µM | HOP-62 > 100 µM | HT-29 > 100 µM | IGROV-1 > 100 µM | K562 > 100 µM | KM-20L2 > 100 µM | KM12 > 100 µM | LOX IMVI > 100 µM | LXFL 529 > 100 µM | M14 > 100 µM | M19-MEL > 100 µM | MOLT-4 > 100 µM | Malme-3M > 100 µM | NCI-H226 11.8 µM | NCI-H23 > 100 µM | NCI-H460 > 100 µM | NCI-H522 > 100 µM | OVCAR-3 > 100 µM | OVCAR-4 > 100 µM | OVCAR-5 > 100 µM | OVCAR-8 > 100 µM | RPMI-8226 > 100 µM | RXF 393 > 100 µM | SF-268 > 100 µM | SF-295 > 100 µM | SK-MEL-28 > 100 µM | SK-MEL-2 > 100 µM | SK-MEL-5 > 100 µM | SK-OV-3 > 100 µM | SN12C > 100 µM | SNB-19 > 100 µM | SR > 100 µM | SW-620 > 100 µM | TK-10 > 100 µM | U-251 > 100 µM | UACC-257 > 100 µM | UACC-62 > 100 µM | UO-31 > 100 µM and 98.9 µM | XF498 > 100 µM
> 100 µM: HCT-15

Nc1nc(SCC(=O)c2ccccc2)c2[nH]cnc2n1
> 100 µM: HCT-15
inactive: 786-0 > 100 µM | A498 > 100 µM | A549 > 100 µM | ACHN > 100 µM | CAKI-1 > 100 µM | CCRF-CEM 51.6 µM | COLO 205 > 100 µM | DLD-1 > 100 µM | DMS-114 > 100 µM | DMS-273 > 100 µM | HCC 2998 > 100 µM | HCT-116 > 100 µM | HL-60 > 100 µM | HOP-18 > 100 µM | HOP-62 > 100 µM | HOP-92 46.5 µM | HT-29 > 100 µM | IGROV-1 > 100 µM | K562 > 100 µM | KM-20L2 > 100 µM | KM12 > 100 µM | LOX IMVI > 100 µM | M14 > 100 µM | M19-MEL > 100 µM | MOLT-4 > 100 µM | Malme-3M > 100 µM | NCI-H226 > 100 µM | NCI-H23 > 100 µM | NCI-H460 > 100 µM | NCI-H522 > 100 µM | OVCAR-3 > 100 µM | OVCAR-4 > 100 µM | OVCAR-5 > 100 µM | OVCAR-8 > 100 µM | RPMI-8226 > 100 µM | SF-268 > 100 µM | SF-295 > 100 µM | SF-539 > 100 µM | SK-MEL-28 > 100 µM | SK-MEL-2 > 100 µM | SK-MEL-5 > 100 µM | SK-OV-3 > 100 µM | SN12C > 100 µM | SNB-19 > 100 µM | SNB-75 21.9 µM | SR > 100 µM | SW-620 > 100 µM | TK-10 > 100 µM | U-251 > 100 µM | UACC-257 > 100 µM | UACC-62 > 100 µM | XF498 > 100 µM

CCOC(=O)NC(=O)c1cn(CCN2CCN(C(=O)CCCCCCCCCCC(=O)N3CCN(CCn4cc(C(=O)NC(=O)OCC)c(=O)[nH]c4=O)CC3)CC2)c(=O)[nH]c1=O
inactive: 786-0 > 100 µM | A498 > 100 µM | A549 > 100 µM | ACHN > 100 µM | CAKI-1 > 100 µM | CCRF-CEM > 100 µM | COLO 205 > 100 µM | DLD-1 > 100 µM | DMS-114 > 100 µM | HCC 2998 > 100 µM | HCT-116 > 100 µM | HOP-18 > 100 µM | HOP-62 > 100 µM | HOP-92 > 100 µM | HT-29 > 100 µM | IGROV-1 > 100 µM | K562 > 100 µM | KM12 > 100 µM | LOX IMVI 29.3 µM | LXFL 529 > 100 µM | M14 > 100 µM | M19-MEL > 100 µM | MOLT-4 > 100 µM | Malme-3M > 100 µM | NCI-H226 > 100 µM | NCI-H23 > 100 µM | NCI-H522 86.5 µM | OVCAR-3 > 100 µM | OVCAR-4 > 100 µM | OVCAR-5 51.6 µM | OVCAR-8 > 100 µM | RPMI-8226 > 100 µM | SF-268 > 100 µM | SF-295 36.8 µM | SF-539 > 100 µM | SK-MEL-28 > 100 µM | SK-MEL-5 > 100 µM | SK-OV-3 > 100 µM | SN12C > 100 µM | SNB-19 > 100 µM | SNB-75 > 100 µM | SR > 100 µM | SW-620 > 100 µM | TK-10 > 100 µM | U-251 > 100 µM | UACC-257 > 100 µM | UO-31 > 100 µM | XF498 > 100 µM
